# Literature values in patent publication US9006270B2, “Polymorphs of (S)-pyrrolidine-1,2-dicarboxylic acid 2-amide 1-({4-methyl-5-[2-(2,2,2-trifluoro-1,1-dimethyl-ethyl)-pyridin-4-yl]-thiazol-2-yl}-amide” (Novartis AG, priority 2011, dated 2015).
# Tested on: phosphatidylinositol 3-kinase (PI3K)
# Conditions: described in WO 2010/029082
structure (smiles),measurement,value
"Cc1nc(NC(=O)N2CCC[C@H]2C(N)=O)sc1-c1ccnc(C(C)(C)C(F)(F)F)c1 [Compound I, (S)-pyrrolidine-1,2-dicarboxylic acid 2-amide 1-(4-methyl-5-[2-(2,2,2-trifluoro-1,1-dimethyl-ethyl)-pyridin-4-yl]-thiazol-2-yl)-amide]",activity against the phosphatidylinositol 3-kinase (PI3K),demonstrated activity
